Activity calls are given as the source filed them. The rule behind the calls is not given here.
System: Saccharomyces cerevisiae lifespan shortening, growth inhibition
Assay: Saccharomyces cerevisiae growth inhibition potency – dose response (AID 849);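 note: yeast growth read as optical density after two days at 30 degrees C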

SMILES | IC50
Cc1ccc(-c2cc(-c3ccccc3C)[nH]n2)c(O)c1 | 15.8 µM
O=[N+]([O-])c1ccc(N=Nc2ccc(O)cc2O)cc1 | 32 µM
CCN1/C(=C(\O)c2ccccc2)C(=O)c2ccccc2S1(=O)=O | > 100 µM (inactive)
O=C(CCCSc1ccccc1)Nc1nc(-c2ccccn2)cs1 | 50.5 µM
Cc1ccc2nc(-c3ccc(NS(=O)(=O)c4ccc(F)c(F)c4)cc3)sc2c1 | > 100 µM (inactive)
Cc1ccc(C(=O)CSC2=NC(N)=C(C#N)C3(CCCCC3)C2C(N)=O)cc1 (centres undefined) | > 100 µM (inactive)
Cc1ccc(C(C[N+](=O)[O-])n2nc(C)cc2C)cc1 (centres undefined) | 19.1 µM
O=C(Oc1ccc(Cl)c2cccnc12)c1ccco1 | 14.6 µM
CCCCCCOC(=O)Sc1nc2ccccc2o1 | 20.2 µM
O=C(O)c1cc2c(ccc3ccccc32)oc1=O | 11.9 µM
CC(=O)N1N=C(c2ccc(Cl)cc2)OC1(C)C | > 100 µM (inactive)
COC1=C(N)C(=O)c2nc(-c3nc(C(=O)O)c(C)c(-c4ccc(OC)c(OC)c4O)c3N)ccc2C1=O | 0.212 µM
O=C(O)c1cc2c(s1)-c1ccccc1OC2 | 42.2 µM
Cc1cc(Cl)ccc1N=c1ssnc1Cl | > 100 µM (inactive)
Cc1ccc(Nc2cc(C)nn2-c2nc(C)cc(=O)[nH]2)cc1 | 1.18 µM
CCn1c(Sc2nc(C)nc3scc(-c4cccs4)c23)n[nH]c1=O | > 100 µM (inactive)
CN1CCN(CC(=O)N2CCn3c4c(c5cc(C6CCCCC6)ccc53)CCCC42)CC1 (centres undefined) | > 100 µM (inactive)
COc1ccc(-c2cc3nc(C)cc(N4CC(C)CC(C)C4)n3n2)cc1 (centres undefined) | 42.2 µM
O=C1c2ccccc2C(=O)C1c1ccc2ccccc2n1 | > 100 µM (inactive)
COc1ccc(/C=C2/C(=O)ON=C2c2ccccc2)cc1OC | 33.3 µM
c1ccc(-c2ccc(-c3ccccn3)nn2)nc1 | 49.3 µM
Cc1c(Cl)cccc1N=Cc1ccc([N+](=O)[O-])s1 | > 100 µM (inactive)
COc1ccc(NCc2ccc([N+](=O)[O-])s2)c(OC)c1 | 41.1 µM

SMILES | IC50
Cc1ccc(N/N=C/c2c(O)cc(C)oc2=O)cc1 | 24.3 µM
Cc1c(C=O)c2ccccn2c1C(=O)c1ccncc1 | > 100 µM (inactive)
Cn1c(C(=O)N2CCC(C(=O)N3CCN(Cc4ccc5c(c4)OCO5)CC3)CC2)cc2sccc21 | > 100 µM (inactive)
CCN1/C(=C/C=C/C=C/c2sc3ccccc3[n+]2CC)Sc2ccccc21 | 21.3 µM
CC1=C(C)CC2C(=O)N(c3cccc4ccccc34)C(=O)C2C1 (centres undefined) | > 100 µM (inactive)
CN1CCN(C2=Cc3cc(Cl)ccc3Sc3cc(F)ccc32)CC1 | 15.2 µM
CCCCOC(=O)Sc1nc2ccccc2o1 | 16 µM
COc1ccc2nc(NC(=S)N(C)C)sc2c1 | > 100 µM (inactive)
CCn1c2ccc(C)cc2c2nc3cc(C(=O)O)ccc3nc21 | 9.6 µM
COc1ccc(OCc2nnc3n2N=C(c2ccc(OC)cc2)CS3)cc1 | > 100 µM (inactive)
O=C(COc1ccc(Cl)cc1)NC1=NN(c2ccccc2)C(=O)C1 | > 100 µM (inactive)
CC12C(=O)N(c3cccc4cccnc34)C(=O)C1C1C=CC2C1 (centres undefined) | > 100 µM (inactive)
S=C(NCc1ccc(Cl)cc1)NC12CC3CC(CC(C3)C1)C2 | > 100 µM (inactive)
COc1ccc2c(c1)[nH]c1c(Cl)ncnc12 | 29.9 µM
Cc1ncc(CC(=O)n2cc(C(=O)c3cc(Cl)ccc3O)cn2)s1 | 12 µM
Oc1c(I)cc(Cl)c2cccnc12 | 23 µM
CCOC(=O)c1c(N)sc(C(O)(C(F)(F)F)C(F)(F)F)c1-c1ccc(Cl)cc1 | > 100 µM (inactive)
O=C1Cc2ccccc2C(=O)N1CCc1ccccc1 | > 100 µM (inactive)
Cc1cccc(N=C2Sc3nc4c(C)c(C)ccc4cc3CN2CCN2CCOCC2)c1 | 44.7 µM
CCOC(=O)c1cc([N+](=O)[O-])c([N+](=O)[O-])cc1NC(C)=O | < 0.098 µM
CCCC(=O)NC(c1cccs1)c1cc([N+](=O)[O-])c2cccnc2c1O (centres undefined) | 16.6 µM
CCS(=O)(=O)n1nc(-c2ccc(Cl)cc2)nc1SCc1ccccc1 | > 100 µM (inactive)
Nc1nsc2ccccc12 | 24.3 µM

SMILES | IC50
O=C(O)CSc1nc(-c2ccc(Cl)cc2)nc2c1oc1ccccc12 | 38 µM
CC(=O)NC(=S)c1c(N)n(Cc2ccccc2)c(=O)n(C)c1=O | > 100 µM (inactive)
O=C1OCC(CO)(CO)N=C1NNc1cc(Cl)ccc1Cl | 16.2 µM
Cc1ccc(N=Cc2cccc(O)c2O)c(C)c1 | 13.1 µM
CC(NC(=O)Nc1ccc(Cl)cc1)C(c1cccs1)N1CCOCC1 (centres undefined) | > 100 µM (inactive)
CN1CCc2cc3c(c4c2[C@H]1[C@H](O)c1ccccc1-4)OCO3 | 35.4 µM
CC(C)(C)n1nc(-c2ccc(F)cc2)c2c(N)ncnc21 | < 0.098 µM
NNC(=O)c1ccc(COc2ccc3c(c2)CCC3)o1 | 15.1 µM
CCc1cccc(C)c1NC(=S)NCc1ccc2[nH]c(C)cc2c1 | 37.5 µM
CCc1ccc2c(c1)C1(NN=C(c3cccc4ccccc34)S1)C(=O)N2 (centres undefined) | 41.3 µM
OCCN(CCO)CC(O)COc1ccc(C23CC4CC(CC(C4)C2)C3)cc1 (centres undefined) | 35.7 µM
COCC(C)OC(=O)/C(C#N)=C\c1coc2ccc(C)cc2c1=O (centres undefined) | > 100 µM (inactive)
CCOc1cc(C2CC(=O)N3CN(C4CCCCC4)CSC3=C2C#N)ccc1O (centres undefined) | > 100 µM (inactive)
CCc1cccc2c(C(=O)COC(=O)c3ccc([N+](=O)[O-])s3)c[nH]c12 | 29.2 µM
CC(NC(=O)/C(C#N)=C/c1ccc(Cl)c([N+](=O)[O-])c1)c1ccccc1 (centres undefined) | > 100 µM (inactive)
O=C(O)c1cc2c(s1)-c1ccccc1CC2 | 30.5 µM
CCN(CC)N=Nc1[nH]nc2nc(C)cc(C)c12 | 7.74 µM
COc1cc2c(cc1OC)CN(C(=O)CSc1nnc3scc(-c4ccccc4)n13)CC2 | > 100 µM (inactive)
COc1ccc(-c2n[nH]c(C(F)(F)F)c2-c2cc3ccccc3o2)c(O)c1 | 26.1 µM
CC1CCc2c(sc3nc(CN4CCOCC4)nc(Sc4ccccc4)c23)C1 (centres undefined) | > 100 µM (inactive)
OC(CNCCc1ccc(C(F)(F)F)cc1)COc1ccc2ccccc2c1 (centres undefined) | > 100 µM (inactive)
COc1cccc2sc(Nc3nc(-c4ccccn4)cs3)nc12 | 20.4 µM
O=C(O)c1cc(-c2ccc(/C=N/Nc3ccc(Cl)cc3)o2)ccc1Cl | 11.7 µM

SMILES | IC50
Cc1ccc(C(NC(=O)C(C)C)c2cc([N+](=O)[O-])c3cccnc3c2O)cc1 (centres undefined) | 11.4 µM
Oc1ccc(N=Nc2cccc(Cl)c2)cc1C=Nc1ccc(N2CCOCC2)cc1 | > 100 µM (inactive)
COc1cc(Br)cc(/C=N/c2ncn[nH]2)c1O | 28.8 µM
O=C(O)C1C2C=CC(O2)C1C(=O)NC1CCCc2ccccc21 (centres undefined) | > 100 µM (inactive)
Oc1cc(-c2ccccc2)c2ccccc2c1 | 26 µM
O=c1oc2ccccc2cc1-c1cn2cccnc2n1 | > 100 µM (inactive)
Cc1nn2c3ccccc3nc2c2ccccc12 | 41.6 µM
Cc1cc([N+](=O)[O-])ccc1-c1ccc(C2Nc3ccccc3C(=O)N2O)o1 (centres undefined) | > 100 µM (inactive)
Cc1ccc2c(c1)C(=NC1CCCCC1)c1cc3ccccc3nc1-2 | 41.3 µM
Cn1c(SCC(=O)Nc2ccccc2)nc(O)cc1=O | 50.1 µM
Cc1cc(C)c2c(=O)n(CC(=O)N3CCC(Cc4ccccc4)CC3)sc2n1 | > 100 µM (inactive)
C=CCn1cnc2c(c1=O)c1nc3ccccc3nc1n2/N=C/c1cc(OC)c(OC)c(OC)c1 | 37.4 µM
Fc1ccc(N/N=C2/CC(c3ccccc3)Oc3ccccc32)c(F)c1 (centres undefined) | 27.7 µM
O=C(N/N=C1\CC2CC=CC12)c1ccc(COc2ccccc2)cc1 (centres undefined) | > 100 µM (inactive)
Clc1ccc(COC(Cn2ccnc2)c2ccc(Cl)cc2Cl)cc1 (centres undefined) | 0.809 µM
COC(=O)Cn1c2ccc(C)cc2c2nc(C)sc21 | > 100 µM (inactive)
O=C(CC(=O)c1ccccc1O)c1ccc(F)cc1 | > 100 µM (inactive)
CC(=O)NC(c1cccs1)c1cc([N+](=O)[O-])c2cccnc2c1O (centres undefined) | > 100 µM (inactive)
N#C/C(=N/O)c1nc(-c2ccc(F)cc2)cs1 | 24.9 µM
CC(=O)NC1C(=O)N=C(SCC(=O)NC2CCCCC2)NC1=O (centres undefined) | > 100 µM (inactive)
CNC(=S)N/N=C(\C)c1ccc(N2CCOCC2)cc1 | > 100 µM (inactive)
O=[N+]([O-])c1ccc(O)c2ncccc12 | 0.575 µM
Cc1c(N=Cc2cc(Br)cc(Br)c2O)cccc1C(=O)O | 23.7 µM

SMILES | IC50
O=C(Oc1c(Cl)cc(Cl)c2cccnc12)c1cccs1 | 11.1 µM
Cc1cc(C)cc(N=Cc2ccc([N+](=O)[O-])s2)c1 | 13.1 µM
CC(=O)NC(CCS(C)(=O)=O)C(=O)Nc1ccc2c(c1)OCO2 (centres undefined) | > 100 µM (inactive)
CC1=C/C(=N\OS(=O)(=O)c2ccccc2)C(C)=CC1=O | 1.54 µM
CCOC(=O)c1c(-c2ccc(-c3ccccc3)cc2)csc1NC(=O)CCN1CCOCC1 | 19.1 µM
O=C(OCn1ncc(Cl)c(Cl)c1=O)c1ccccc1Cl | 20.7 µM
O=[N+]([O-])c1cc(Cc2ccccc2)cc(C=Nc2ccc(N3CCOCC3)cc2)c1O | > 100 µM (inactive)
O=C(Nc1nc(-c2ccccn2)cs1)c1ccc(Cl)s1 | 2.85 µM
Cc1ccc(/C(N)=N/OC(=O)c2ccc(C)cc2Cl)cc1 | 14.8 µM
O=C(N/N=C\c1cccc([N+](=O)[O-])c1O)C1COc2ccccc2O1 (centres undefined) | 24.8 µM
O=C(NNC(=S)NC(=O)C12CC3CC(CC(C3)C1)C2)c1ccncc1 | 19.6 µM
O=S(=O)(Nc1ccc(-c2csc(-c3ccccc3)n2)cc1)c1ccc(F)cc1 | > 100 µM (inactive)
C/C(=N\Nc1ccc(Cl)cc1)c1ccccn1 | 43.5 µM
c1ccc2nc3c(nc2c1)[nH]c1ccccc13 | 25 µM
Cn1cccc1C(=O)Nc1nc(-c2ccccn2)cs1 | 33.7 µM
Cc1nn(-c2cccc(C(F)(F)F)c2)c(Cl)c1/C=N/Nc1cccc(C(=O)O)c1 | 39.8 µM
Cc1[nH]n(-c2ccccc2)c(=O)c1/C=N/Nc1nncc(-c2ccccc2)n1 | 19.3 µM
C=CCN1C(=O)/C(=C/c2cccs2)C(=O)NC1=S | 17.6 µM
Cc1ccc(N=Nc2ccc(O)c3ncccc23)cc1 | 34.3 µM
COc1ccc(-c2nnc3sc(C(C)N4C(=O)c5ccccc5C4=O)nn23)cc1 (centres undefined) | > 100 µM (inactive)
Cc1cc2sc(C(=O)O)c(C)c2s1 | 41.6 µM
O=C1ON=C(c2ccccc2)/C1=C/c1ccc(OS(=O)(=O)c2ccccc2)cc1 | 18.9 µM

Reference: PubChem BioAssay AID849 (SRMLSC, 2007)
